What all share (experiment): NCI anticancer screen, dose series, 48 h
Assay [1] deals with M14 melanoma.
Assay [2] concerns SK-MEL-5 melanoma.
The test system of assay [3] is CAKI-1 renal.
Assay [4] relates to UACC-257 melanoma.
Assay [5] relates to OVCAR-5 ovarian.
Assay [6] deals with MALME-3M melanoma.
Assay [7] has as its system 786-0 renal.
Assay [8] deals with IGROV1 ovarian.
The test system of assay [9] is RPMI-8226 leukemia.

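48-hour exposure; five concentrations; linearly interpolated endpoints. GI50: concentration for 50% inhibition of growth. TGI is the concentration that stops growth completely.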 Bounds are passed on as bounds.

For the compound `COc1ccc2nc3cc(Cl)ccc3c(Sc3ccc(N)cc3)c2c1`, the TGI in assay [1] is 22 µM; in assay [2] it was 25.3 µM; in [3], 29.6 µM; in assay [4] it was 26.1 µM; in assay [5], 34.8 µM; in [6] it was 30.1 µM. In addition, the TGI in assay [7] amounted to 19.8 µM; in assay [8] it was 32 µM.

Consider `Cn1c(=O)nc2n(-c3ccc(Br)cc3)c3ccccc3nc-2c1=O`, for which the TGI was found to be 15.5 µM in assay [1]; 4.12 µM in assay [2]; 33 µM in assay [3]; 6.79 µM in assay [4]; 26.4 µM in assay [5]; 12.7 µM in [6]. Further, the TGI in assay [9] was 28.8 µM; in assay [7], 22.3 µM; in assay [8], 28 µM.

`C=CCCC(O)c1cc(C)c(O)c(C)c1` (configuration not stated): the TGI in assay [1], in assay [2], in [4], in assay [5], in [6] and in assay [9] was over 100 µM throughout. Further, the TGI in [7] and in [8] was over 100 µM in each case.

For the compound `CCCCC[C@@H]1CCCC2NC(CCCCCO[Si](c3ccccc3)(c3ccccc3)C(C)(C)C)CCC21` (some centres not stated), the TGI in assay [1] is 27.3 µM; in assay [2], 35.3 µM; in assay [3], 29 µM; in [4], 29 µM; in assay [5], 34.8 µM; in assay [6] it was 36.9 µM. Moreover, the TGI in assay [9] was found to be 22.2 µM; in assay [7] it was 33.2 µM; in [8] it was 32.9 µM.

With `CNc1c2ccccc2nc2occ(Cl)c12`, the GI50 was 37.2 µM in assay [1]; 16.6 µM in assay [2]; 12 µM in [3]; 47 µM in assay [5]; 25.1 µM in assay [6]; 16 µM in [9]. The GI50 was 34.6 µM in [7] and 50.5 µM in assay [8]. Besides, the TGI in [1] is over 100 µM; in [2], 34.8 µM; in [3] it was 33.2 µM; in assay [5], over 100 µM; in [6], 59.5 µM; in assay [9] it was 39.8 µM. The TGI in assay [7] and in [8] was over 100 µM throughout.

Regarding `COC1CCCc2c(OC(C)=O)ccc(OC(C)=O)c21` (configuration not stated), the TGI in assay [1], in assay [2], in assay [3], in assay [5], in assay [6] and in [7] was over 100 µM each time. The compound also came in with a TGI in assay [8] of over 100 µM.

With `O=c1[nH]c2nc3ccccc3c(=O)n2nc1Cc1ccccc1`, the TGI in assay [1], in [2], in [3], in [4], in assay [5] and in assay [6] was over 100 µM in each case. Moreover, the TGI in assay [9], in assay [7] and in assay [8] was over 100 µM in each case.

For `N#CN1CC[C@@H]2CC3(CCC2C1)OCCO3` (some centres not stated), the TGI in assay [1], in assay [2], in assay [3], in assay [4], in [5] and in assay [6] was over 100 µM in each case. For the same compound, the TGI in assay [9], in assay [7] and in assay [8] was over 100 µM throughout.

With `CCN(Cc1ccc(Cl)c(Cl)c1)c1ccc2nc(N)nc(N)c2c1C`, the GI50 is under 0.01 µM in [1]; under 0.01 µM in [2]; under 0.0237 µM in assay [3]; 1.25 µM in assay [4]; 0.209 µM in assay [5]; 1.17 µM in [6]. For the same compound, the GI50 in assay [9] is 0.0968 µM; in assay [7], under 0.01 µM; in assay [8] it was under 0.01 µM. Moreover, the TGI in assay [1] is 1.63 µM; in assay [2] it was 1.45 µM; in assay [3], 0.802 µM; in assay [4], 2.72 µM; in [5] it was 2.13 µM; in [6], 2.6 µM. The TGI in [9] is 2.83 µM; in assay [7], 1.27 µM; in [8], 1.58 µM.

As to `O=C(c1ccccc1)c1nc2c(Cl)ccc(Cl)c2cc1C(Br)Br`, the TGI worked out at 2.89 µM in assay [1]; 2.7 µM in assay [2]; 3.51 µM in assay [3]; 1.54 µM in [4]; 2.29 µM in [5]; 5.66 µM in assay [6]. Moreover, the TGI in assay [9] was 2.2 µM; in assay [7], 0.983 µM; in assay [8], 12.4 µM.

For the compound `C=CC[P@]1(=O)O[C@H](c2ccccc2)C(C)N1C(C)C` (some centres not stated), the TGI in assay [1], in assay [2], in [4], in assay [5], in assay [6] and in assay [9] was over 100 µM in each case. In addition, the TGI in assay [7] and in assay [8] was over 100 µM throughout.

`CCOC(=O)c1ccc(N=Cc2ccc(N(CCC#N)S(=O)(=O)c3ccccc3)cc2C)cc1`: the TGI in assay [1], in [2], in assay [3], in [4], in assay [5] and in assay [6] was over 100 µM in each case. For the same compound, the TGI in assay [9], in assay [7] and in [8] was over 100 µM in each case.

As for `N.N.N.N.N#N.N#N.[Cl-].[Os+6]`, the GI50 in assay [1], in assay [2], in [3], in assay [5], in assay [6] and in [9] was over 100 µM throughout. Also, the GI50 in assay [7] and in [8] was over 100 µM each time. Besides, the TGI in [1], in assay [2], in assay [3], in assay [5], in [6] and in assay [9] was over 100 µM each time. Moreover, the TGI in [7] and in [8] was over 100 µM in each case.

Regarding `Cc1c(C)c2cc3c(=O)c(CCl)coc3c(C)c2oc1=O`, the TGI in assay [1], in [2], in assay [4], in assay [5], in [6] and in [9] was over 100 µM in each case. Further, the TGI in assay [7] and in [8] was over 100 µM in each case.

As to `COCN1COCN(C)C1=O`, the TGI in assay [1], in assay [2], in assay [3], in assay [4], in assay [5] and in assay [6] was over 100 µM throughout. In addition, the TGI in assay [9], in [7] and in assay [8] was over 100 µM each time.

Regarding `COc1ccc2c(c1OC)C(=O)C2`, the TGI in [1], in assay [2], in assay [4], in assay [6], in assay [9] and in assay [7] was over 100 µM throughout.

For the compound `COC(=O)c1csc(-c2csc(CCNC(=O)OC(C)(C)C)n2)n1`, the TGI in assay [1], in assay [2], in assay [4], in assay [5], in assay [6] and in [9] was over 100 µM in each case. For the same compound, the TGI in assay [7] and in assay [8] was over 100 µM in each case.

For `O=C(NCCCN1CCN(CCCNC(=O)c2cccc3ccccc23)CC1)c1cccc2ccccc12`, the TGI in assay [1], in assay [2], in assay [3], in assay [4], in [5] and in assay [6] was over 100 µM each time. The TGI in assay [9], in assay [7] and in [8] was over 100 µM each time.

On to `O=C(CC1(O)C(=O)Nc2ccccc21)c1ccc(Cl)c(Cl)c1` (configuration not stated), for which the TGI in assay [1], in assay [2], in assay [3], in assay [5], in [9] and in assay [7] was over 100 µM in each case. This compound also returned a TGI in assay [8] of over 100 µM.

In the case of `S=C1SCC2CCCN12` (configuration not stated), the TGI in [1], in assay [2], in assay [3], in [4], in assay [5] and in [6] was over 100 µM each time. In addition, the TGI in assay [9], in [7] and in assay [8] was over 100 µM in each case.

In the case of `Cc1nc(-n2nc(-c3ccccc3)cc2-c2ccccc2)sc1C(=O)CC(=O)C(=O)Nc1ccc(Cl)c(Cl)c1`, the TGI in assay [1], in assay [3], in [4], in [5], in assay [6] and in assay [9] was over 100 µM each time. Also, the TGI in assay [7] and in [8] was over 100 µM each time.

With `CC1=CC(=O)NP(=O)(Oc2ccc(Cl)cc2)N1` (configuration not stated), the TGI in assay [1], in [2], in assay [3], in [4], in [5] and in [6] was over 100 µM in each case. Also, the TGI in [9], in assay [7] and in assay [8] was over 100 µM in each case.

`CC(C)(C)C1=CC(=N/N=c2\scc(-c3ccccc3)n2Cc2ccccc2)C=C(C(C)(C)C)C1=O`: the TGI in [1], in assay [2], in assay [3], in [4], in assay [5] and in [6] was over 100 µM in each case. The compound also came in with a TGI in assay [7] of over 100 µM.

As for `CC(=O)OC1(Sc2ccccc2)CC2[C@H]3COC(C)(C)O[C@H]3CC[C@@]2(C)CC1=O` (some centres not stated), the TGI in assay [1] is over 100 µM; in assay [2], 70 µM; in assay [3], over 100 µM; in assay [4], over 100 µM; in assay [5], over 100 µM; in assay [6], over 100 µM. Moreover, the TGI in assay [9] was 69.7 µM; in assay [7], over 100 µM; in [8], over 100 µM.

As to `COc1ccc(-c2cc(=O)c3c(O)c(O)c(OC)cc3o2)cc1O`, the TGI in assay [1], in assay [2], in assay [3], in assay [4], in assay [5] and in assay [6] was over 100 µM each time. Besides, the TGI in assay [9], in assay [7] and in assay [8] was over 100 µM each time.

Take `Cc1nc2ccccc2c(=O)n1/N=C(\N=Nc1ccc(Cl)cc1)c1cccc(-c2ccco2)c1`: the TGI in assay [1] was over 100 µM; in assay [2], 57.4 µM; in assay [3], 98.4 µM; in assay [9] it was over 100 µM; in assay [7], over 100 µM; in assay [8], over 100 µM.

For `CC(C)(C)c1cc(C2c3cc4c(cc3OC(O)(CO)C2C(=O)O)OCO4)cc(C(C)(C)C)c1O` (configuration not stated) (tested in a mixture with another compound), the TGI came out at 30.7 µM in [1]; 23.9 µM in assay [2]; 50.3 µM in [3]; 26.4 µM in [4]; 37.3 µM in assay [6]; 22.7 µM in [9]. The TGI turned out to be 33.8 µM in assay [7] and 48.6 µM in assay [8].

Turning to `Cc1cccc(NC(=O)c2c(N)[n+]([O-])c3ccccc3[n+]2[O-])c1`, the TGI in [1] was 24.9 µM; in assay [2], 17 µM; in [3], 27.4 µM; in [4], 24.4 µM; in assay [5] it was 42.3 µM; in assay [6] it was 27.1 µM. Moreover, the TGI stood at 17.9 µM in [7] and 21.5 µM in assay [8].

Turning to `O=C(n1c2ccccc2c2n[nH]c(=S)nc21)C(F)(F)F`, the TGI in assay [1], in assay [2], in [3], in [5], in [6] and in assay [7] was over 100 µM in each case. In assay [8], the TGI was over 100 µM.
